“Also recorded” adds a separate entry of the source. Read-outs that look alike come from different tables or passages of the source. Values belong to the compound of their own block, whether it stands above or below them.
Assays:
M1 [1] = target: T1, M1 (Homo sapiens, UniProt P11229); assay: Ca2+ mobilization potentiation of ACh ~EC20, M1 CHO cells; format: cell-based
T1 sequence (P11229 1-460): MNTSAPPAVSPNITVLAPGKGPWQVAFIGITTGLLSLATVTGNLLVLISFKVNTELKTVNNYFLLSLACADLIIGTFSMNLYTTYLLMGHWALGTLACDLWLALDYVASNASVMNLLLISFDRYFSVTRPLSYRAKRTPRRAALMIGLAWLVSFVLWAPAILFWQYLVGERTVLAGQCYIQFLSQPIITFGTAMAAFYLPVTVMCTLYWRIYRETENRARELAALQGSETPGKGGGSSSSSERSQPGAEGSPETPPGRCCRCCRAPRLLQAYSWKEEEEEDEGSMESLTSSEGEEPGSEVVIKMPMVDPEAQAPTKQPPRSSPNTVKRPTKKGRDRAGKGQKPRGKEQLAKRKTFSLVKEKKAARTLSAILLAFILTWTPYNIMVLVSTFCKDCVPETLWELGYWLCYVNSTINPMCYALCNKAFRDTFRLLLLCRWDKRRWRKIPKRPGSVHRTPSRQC

M2 = target: T2, M2 (Homo sapiens, UniProt P08172); format: cell-based; conditions: fixed ACh ~EC20, Ca2+ assay, Gqi5 cotransfected, up to 30 µM
T2 sequence (P08172 1-466): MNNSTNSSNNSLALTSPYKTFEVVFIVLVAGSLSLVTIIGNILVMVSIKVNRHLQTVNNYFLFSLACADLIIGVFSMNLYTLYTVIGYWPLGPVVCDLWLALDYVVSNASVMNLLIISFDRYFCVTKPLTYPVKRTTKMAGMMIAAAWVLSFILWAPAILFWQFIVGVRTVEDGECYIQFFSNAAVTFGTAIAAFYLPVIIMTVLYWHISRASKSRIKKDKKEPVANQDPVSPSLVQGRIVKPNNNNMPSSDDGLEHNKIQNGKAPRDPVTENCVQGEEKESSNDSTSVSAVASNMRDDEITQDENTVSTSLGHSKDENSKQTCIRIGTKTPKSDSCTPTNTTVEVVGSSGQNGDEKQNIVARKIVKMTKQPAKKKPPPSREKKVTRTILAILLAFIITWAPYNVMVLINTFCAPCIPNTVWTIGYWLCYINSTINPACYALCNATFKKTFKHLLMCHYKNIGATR

M5 [2] = target: T3, M5 (Homo sapiens, UniProt P08912); assay: Ca2+ mobilization assay, M5 CHO cells; format: cell-based
T3 sequence (P08912 1-532): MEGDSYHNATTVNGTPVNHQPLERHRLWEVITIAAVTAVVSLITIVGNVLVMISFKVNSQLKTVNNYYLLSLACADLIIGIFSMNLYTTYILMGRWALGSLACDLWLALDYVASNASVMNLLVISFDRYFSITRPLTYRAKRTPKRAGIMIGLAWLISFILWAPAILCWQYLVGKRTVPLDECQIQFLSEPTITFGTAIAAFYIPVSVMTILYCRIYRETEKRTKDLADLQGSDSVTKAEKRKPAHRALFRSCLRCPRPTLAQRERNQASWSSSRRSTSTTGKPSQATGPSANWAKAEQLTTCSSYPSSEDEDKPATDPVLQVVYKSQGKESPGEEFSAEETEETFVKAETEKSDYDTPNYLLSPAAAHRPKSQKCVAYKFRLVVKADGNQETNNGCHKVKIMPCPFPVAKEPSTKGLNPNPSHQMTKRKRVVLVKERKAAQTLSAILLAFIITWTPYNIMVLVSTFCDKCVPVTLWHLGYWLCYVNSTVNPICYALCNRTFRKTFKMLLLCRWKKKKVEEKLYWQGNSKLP

M5 [3] = target: T3, M5; assay: [3H]-NMS competition binding, M5-CHO membrane preparations; conditions: up to 30 µM, M5-CHO membranes
M4 = target: T4, M4 (Homo sapiens, UniProt P08173); format: cell-based; conditions: for M4 potentiator activity: fixed ACh ~EC20, Ca2+ assay, Gqi5 cotransfected, up to 30 µM
T4 sequence (P08173 1-479): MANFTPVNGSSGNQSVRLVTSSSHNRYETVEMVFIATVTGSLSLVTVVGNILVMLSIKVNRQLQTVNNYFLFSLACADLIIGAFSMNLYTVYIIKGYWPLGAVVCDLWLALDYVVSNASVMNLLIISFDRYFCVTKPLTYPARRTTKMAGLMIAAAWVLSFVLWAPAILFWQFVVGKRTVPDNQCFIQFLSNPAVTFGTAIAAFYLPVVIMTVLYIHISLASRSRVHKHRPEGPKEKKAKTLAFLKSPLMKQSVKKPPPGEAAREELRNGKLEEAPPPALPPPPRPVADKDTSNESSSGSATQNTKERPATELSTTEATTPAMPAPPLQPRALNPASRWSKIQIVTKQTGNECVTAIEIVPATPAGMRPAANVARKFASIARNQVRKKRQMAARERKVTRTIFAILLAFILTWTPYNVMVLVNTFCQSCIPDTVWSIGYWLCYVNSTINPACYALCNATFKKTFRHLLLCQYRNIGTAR

M1 [4] = target: T1, M1; conditions: fixed 30 µM compound, at M1; cited from earlier work

- EC50 (M1 [1]): > 10 µM
SMILES: COc1ccc(CN2C(=O)C(=O)c3ccccc32)cc1 [compound 22]

- EC50 (M1 [1]): > 30 µM
SMILES: COc1cccc(CN2C(=O)C(=O)c3c(Cl)ccc(Cl)c32)c1 [compound 38]

- EC50 (M1 [1]): > 30 µM
SMILES: COc1cccc(CN2C(=O)C(=O)c3cc(OC(F)(F)F)ccc32)c1 [compound 41]

- M2 potentiator activity (M2; listed as VU0238429): no M2 or M4 potentiator activity
- selectivity for M5 versus M1 and M3 (M5 [2]; from EC50 in Ca2+ assays): > 30 fold
- selectivity for M5 versus the other four subtypes (M5 [2]; from EC50 in Ca2+ assays): > 30 ×
- EC50 (M1 [1]): > 30 µM
- M4 potentiator activity (M4; listed as VU0238429): no M2 or M4 potentiator activity
SMILES: COc1ccc(CN2C(=O)C(=O)c3cc(OC(F)(F)F)ccc32)cc1 [compound 42]
- M2 potentiator activity (M2): lack of potentiation activity; also recorded: inactive
- intrinsic agonist activity at M5 (M5 [2]; compound alone, absence of ACh, up to 30 µM, Ca2+ assay): absence of intrinsic agonist activity; also recorded: lacked intrinsic agonist activity
- competition with [3H]-NMS binding to M5 (M5 [3]): lack of competition; also recorded: lacked competition
- M4 potentiator activity (M4): lack of potentiation activity; also recorded: inactive

- EC50 (M1 [1]): > 30 µM
SMILES: O=C1C(=O)N(Cc2ccccc2C(F)(F)F)c2c(F)cccc21 [compound 49]

- M2 potentiator activity (M2): modest potentiation
- EC50 (M4): > 10 µM
- M4 potentiator activity (M4): modest potentiation
SMILES: O=C1C(=O)N(Cc2ccc(C(F)(F)F)cc2)c2c(Cl)cccc21 [compound 56]

- EC50 (M1 [1]): > 30 µM
SMILES: O=C1C(=O)N(Cc2ccccc2Cl)c2ccc(OC(F)(F)F)cc21 [compound 64]

- EC50 (M1 [1]): > 30 µM
SMILES: O=C1C(=O)N(Cc2ccc(OC(F)(F)F)cc2)c2ccc(OC(F)(F)F)cc21 [compound 110]

- EC50 (M1 [1]): > 30 µM
SMILES: Cc1ccccc1CN1C(=O)C(=O)c2cc(OC(F)(F)F)ccc21 [compound 111]

- EC50 (M1 [1]): > 30 µM
SMILES: O=C1C(=O)N(Cc2ccc(Br)cc2F)c2ccc(OC(F)(F)F)cc21 [compound 112]

SMILES: O=C1C(=O)N(Cc2ccc(Br)cc2)c2ccccc21 [compound 113]
- M2 potentiator activity (M2): lacked potentiator effects; also recorded: inactive
- M4 potentiator activity (M4): lacked potentiator effects; also recorded: inactive
- leftward shift of full ACh CRC (M1 [4]): 14 fold

— paper PMC3875304 (Journal of medicinal chemistry, 2009)
